Source: patent US5229362A, “Antibiotic A10255 complex and factors, and process and production therefor” (Eli Lilly and Company, priority 1991, dated 1993)

System: rumen-cannulated wethers
Assay: Rumen lactic acidosis in rumen-cannulated wethers switched abruptly to concentrate
Assay type: in vivo, sheep
Conditions: 60 mg/d; Day 6, 12-hr sample

CC[C@@]1([C@@H]2O[C@@H]([C@H]3O[C@@](O)(CO)[C@H](C)C[C@@H]3C)C[C@@H]2C)CC[C@H]([C@]2(C)CC[C@]3(C[C@H](O)[C@@H](C)[C@@H]([C@@H](C)[C@@H](OC)[C@H](C)C(=O)O)O3)O2)O1 [Monensin]
Rumen pH: 5.02
Ruminal TVFA: 43.6 mM/l
